Results on one molecule are retold here after ChEMBL document CHEMBL1833927, “Constructing transferrin receptor targeted drug delivery system by using doxorubicin hydrochloride and vanadocene dichloride” (Bioorg Med Chem Lett, 2011).

Experiment [1] addresses Serotransferrin (Homo sapiens) (UniProt P02787). In words: Binding affinity to human serum transferrin after 12 hrs at pH 4.8 by spectrofluorometer method.
For experiment [2], the system named is A549. Briefly: Antiproliferative activity against human A549 cells by MTT assay. The class given is functional, cell-based.
Experiment [3] concerns A549. In words: Antiproliferative activity against human A549 cells by MTT assay in presence of human serum transferrin/apo transferrin. It counts as functional, cell-based. (In general: Tetrazolium assays rely on reduction of a dye to a coloured formazan, in cell work by metabolically active cells.)
The target in experiment [4] is Serotransferrin (Homo sapiens) (UniProt P02787). Briefly: Binding affinity to human apo transferrin after 12 hrs at pH 7.4 by spectrofluorometer method.
Experiment [5] shares this target. In words: Binding affinity to human serum transferrin after 12 hrs at pH 7.4 by spectrofluorometer method.
For experiment [6] the target is unchanged. In words: Binding affinity to human apo transferrin after 12 hrs at pH 4.8 by spectrofluorometer method.

Chain of Serotransferrin (Homo sapiens) (P02787 whole entry): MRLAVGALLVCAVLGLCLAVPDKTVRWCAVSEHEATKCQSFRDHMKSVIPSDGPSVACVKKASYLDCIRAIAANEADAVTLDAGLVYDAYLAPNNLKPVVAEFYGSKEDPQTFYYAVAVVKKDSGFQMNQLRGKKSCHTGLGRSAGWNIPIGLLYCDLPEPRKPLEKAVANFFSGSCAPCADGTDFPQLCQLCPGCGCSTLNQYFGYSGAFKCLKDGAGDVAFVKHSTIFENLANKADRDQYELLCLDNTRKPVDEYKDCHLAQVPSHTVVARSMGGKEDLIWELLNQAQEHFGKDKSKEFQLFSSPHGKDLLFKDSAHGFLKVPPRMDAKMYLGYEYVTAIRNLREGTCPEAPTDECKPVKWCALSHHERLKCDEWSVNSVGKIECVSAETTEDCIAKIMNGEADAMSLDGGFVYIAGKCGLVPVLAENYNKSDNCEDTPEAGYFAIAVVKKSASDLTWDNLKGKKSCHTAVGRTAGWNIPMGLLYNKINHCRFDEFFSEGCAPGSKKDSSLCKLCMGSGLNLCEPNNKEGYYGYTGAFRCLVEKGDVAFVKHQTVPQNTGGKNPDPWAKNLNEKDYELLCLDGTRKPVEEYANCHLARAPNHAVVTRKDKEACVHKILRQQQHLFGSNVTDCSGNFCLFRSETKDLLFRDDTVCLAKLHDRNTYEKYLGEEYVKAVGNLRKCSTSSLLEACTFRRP

As to `COc1cccc2c1C(=O)c1c(O)c3c(c(O)c1C2=O)C[C@@](O)(C(=O)CO)C[C@@H]3O[C@H]1C[C@H](N)[C@H](O)[C@H](C)O1`, the Ka in experiment [1] was 41900 M⁻¹; in experiment [4] it was 74500 M⁻¹; in experiment [5] it was 32600 M⁻¹; in experiment [6] it was 271000 M⁻¹. Also, the Activity result in experiment [2] and in experiment [3] was “Dose-dependent effect” in each case.
